Reference: patent US9980949B2, “SNS-595 and methods of using the same” (Sunesis Pharmaceuticals, Inc., priority 2004, dated 2018)

Key:
[1] = system: HCT116 cells; assay: Combination studies with SNS-595, MTT assay, median-effect Combination Index; type: cell-based; conditions: combination with SNS-595 at constant ratio, 72 hours, <0.90 synergistic, 0.90-1.10 additive, >1.10 antagonistic
Experimental: The final DMSO concentration was 1% in the assay plate. The treated cells were incubated for 72 hours at 37° C., 5% CO2 before adding 20 μl/well 3-[4,5-dimethylthiazol-2-yl]-2,5-diphenyltetrazolium bromide (MTT) for 1 hour followed by 100 μl/well N,N-dimethyl formamide/SDS lysis buffer for at least 16 hours. The plates were read for absorbance at a wavelength of 595 nm. The data was worked up using the median-effect method that quantifies the interaction using a Combination Index (calculated using the software for dose effect analysis, Calcusyn V2(Biosoft). A combination is said to be additive if it yields a Combination Index of 0.90-1.10. A combination is said to be synergistic if it yields a Combination Index less than 0.90 and a combination is said to be antagonistic if it yields a Combination Index of more than 1.10. All Combination Index calculations were at a Fa value of 0.5, the point where 50% of the cells were dead. See Table 2.

[2] = system: various cells; assay: Cellular potency (EC50) in various cells; type: cell-based
Excerpt: (§1) SNS-595 is a cell cycle inhibitor and arrests cells at the G2 interface. Initially, the activity of SNS-595 was believed due to topoisomerase II inhibition.

[3] = biological target: topoisomerase II; assay: Catalytic inhibition of topoisomerase II (decatenation and relaxation of supercoiled DNA); type: biochemical; conditions: inhibits decatenation and relaxation of supercoiled DNA, no formation of cleavable complexes
Excerpt: as §1

[4] = system: 2-deoxyglucose treated cells; assay: Activity in cells with topoisomerase II levels modulated by 2-deoxyglucose; type: cell-based; conditions: topoisomerase II levels modulated using 2-deoxyglucose
Excerpt: as §1

[5] = system: HCT-116 colon cancer cells; assay: Inhibition of cell growth (MTT) by SNS-595 in absence and presence of wortmannin; type: cell-based; conditions: HCT-116 cells, 100 nM wortmannin for 8-16 hours, 72 hours
Experimental: (§2) HCT-116 colon cancer cells were plated at a density of approximately […] with 100 μl/well of RPMI-1640 media (supplemented with 10% fetal bovine serum, 1% antibiotic/antimycotic, and 1.5% sodium bicarbonate) in a 96-well clear tissue-culture treated plate for 24 hours at 37° C., 5% CO2. Some cells were treated with 100 nM wortmannin for 8-16 hours. SNS-595 was then added as a serial dilution, and cells were incubated for 72 hours at 37° C., 5% CO2. MTT (20 μl/well of a 5 mg/ml stock solution) was added for 1 hour, followed by N,N-dimethyl formamide/SDS lysis buffer for at least 16 hours. Absorbance was monitored at 595 nm and data were fit by nonlinear regression to determine the inhibition of cell growth (IC50) by SNS-595 in the absence and presence of wortmannin. […] Similar results were seen when DNA-PK null cell line (approximately a 10 fold sensitization) was used instead of HCT-116 cells.

[6] = system: DNA-PK null cell line; assay: Inhibition of cell growth (MTT) by SNS-595 in DNA-PK null cell line; type: cell-based; conditions: DNA-PK null cell line instead of HCT-116 cells
Experimental: as §2

[7] = Solubility in acidic compositions; type: physicochemical; conditions: acidic compositions (<pH 4)
Experimental: An illustrative example of a suitable composition comprises: 10 mg SNS-595 per mL of aqueous solution of 4.5% sorbitol that is adjusted to pH 2.5 with methanesulfonic acid. One protocol for making such a solution includes the following for making a 100 mg/10 mL presentation: 100 mg of SNS-595 and 450 mg D-sorbitol are added to distilled water; the volume is brought up to a volume of 10 mL; and the pH of the resulting solution is adjusted to 2.5 with methanesulfonic acid. The resulting composition is also suitable for lyophilization. The lyophilized form is then reconstituted with sterile water to the appropriate concentration prior to use.

[8] = system: DNA-PK pathway; assay: Dose-dependent responses of DNA-PK pathway members in HCT 116 cells (FIG. 2); type: cell-based; conditions: H2AX, c-Abl, p53, p73, p21, caspase-9, caspase-3
Excerpt: (§3) This damage impedes the ability of the cell to synthesize DNA and lengthens the time the cell spends in the S phase. […] When the DNA damage is sufficiently severe such that the double-strand breaks cannot be repaired through non-homologous end joining (NHEJ), the cell rapidly enters apoptosis. Some cells are able to reach the G2 phase but are subsequently arrested (mediated by cdc2/cyclin B) because the cells are too damaged to enter into the M phase and also eventually becomes apoptotic.

[9] = system: DNA-PK pathway; assay: Pharmacodynamic study: DNA-PK pathway members in HCT116 xenograft tumors (Western blots); type: in vivo, Nu/nu mice; conditions: IV bolus 20 or 40 mg/kg, 1-24 hours post dose, FIG. 3
Experimental: Nu/nu mice (ca. 25 grams) were injected with HCT116 cells (which were obtained from the ATCC) in the hind flank at 5 million cells with 50% matrigel (Becton-Dickinson). Tumors were allowed to grow to 400 mm^3. Xenograft bearing animals were then given either an IV bolus injection of SNS-595 (20 or 40 mg/kg) in the tail vein or a saline vehicle. At prescribed time points (1, 2, 4, 8, 16, and 24 hours post dose), animals were anesthetized with CO2, blood was taken via terminal cardiac puncture, and animals were sacrificed. Tumors were excised, pulverized using liquid nitrogen-cooled mortar and pestle, and flash-frozen in liquid nitrogen. Tumor lysates were made from pulverized samples by addition of lysis buffer. The protein concentrations of the DNA-PK pathway members were determined by Western blots. Approximately 25 micrograms of protein was loaded per lane on an SDS-PAGE gel. Proteins were separated by gel electrophoresis, blotted onto nitrocellulose membranes, and detected using the following antibodies: H2AX, phosphorylated at […] (Cell Signaling, catalog no. 2577L); p53, phosphorylated at S15 (Cell Signaling, catalog no. 9284S); p53, phosphorylated at S37 (Cell Signaling, catalog no. 9289S); p21 (Cell Signaling, catalog no. 2946); cdc2, phosphorylated at Y15 (Calbiochem, catalog no. 219437); cyclin B (Santa Cruz, catalog no. sc-594 (H-20)); p73, phosphorylated at […] […]

[10] = Pharmacokinetics of SNS-595 in cancer patients; type: in vivo, human; conditions: for C0: human, intravenous
Experimental: SNS-595 was administered to enrolled patients for up to six cycles. A cycle is defined as a three-week period, with SNS-595 administered on the first day of each cycle (day 0), followed by at least 21 days of observation. SNS-595 was administered to cohorts of at least 3 patients and dose escalation occurred by sequential cohort.

[11] = system: cells where G2 arrest is abrogated; assay: Cytotoxicity in cells where G2 arrest is abrogated by caffeine; type: cell-based; conditions: caffeine inhibits both ATM and ATR
Excerpt: As shown by FIG. 1, ATM, ATR, and DNA-PK are three central DNA sensors/effectors that depending on the level of DNA damage that is detected within an individual cell, direct the cell into one of several outcomes including DNA repair, G2 arrest or apoptosis.

[12] = system: stable variant of HCT-116 cells; assay: Sensitivity of a stable SNS-595-resistant variant of HCT-116 cells; type: cell-based; conditions: stable variant with induced resistance
Excerpt: Consistent with this mechanism, cells with induced resistance to SNS-595 also have alterations in the DNA-PK pathway. […] Conversely, decreased levels of DNA-PK or its activity (e.g. in the presence of an inhibitor) is associated with an increased sensitivity to SNS-595.

[13] = system: non-proliferating cells; type: cell-based
Excerpt: as §3, with “Treatment with SNS-595 results in an increase in the number of double-strand DNA breaks that form during the S phase. This” for “This”

Structure (SMILES): N.N.O=C([O-])C1(C(=O)[O-])CCC1.[Pt+2] [Carboplatin]
- Combination Index @ Fa = 0.5 [1]: 0.54

Structure (SMILES): N.N.[Cl][Pt][Cl] [Cisplatin]
- Combination Index @ Fa = 0.5 [1]: 0.54

Structure (SMILES): CC(=O)O[C@@]12CO[C@@H]1C[C@H](O)[C@@]1(C)C(=O)[C@H](O)C3=C(C)[C@@H](OC(=O)[C@H](O)[C@@H](NC(=O)OC(C)(C)C)c4ccccc4)C[C@@](O)([C@@H](OC(=O)c4ccccc4)[C@H]21)C3(C)C [Docetaxel]
- Combination Index @ Fa = 0.5 [1]: 2.00

Structure (SMILES): COC1=C2C[C@@H](C)C[C@H](OC)[C@H](O)[C@@H](C)/C=C(\C)[C@H](OC(N)=O)[C@@H](OC)/C=C\C=C(/C)C(=O)NC(=CC1=O)C2=O [Geldanamycin]
- Combination Index @ Fa = 0.5 [1]: 0.47

Structure (SMILES): Cn1cnc2c(NCc3ccccc3)nc(NCCO)nc21 [Olomucine]
- Combination Index @ Fa = 0.5 [1]: 1.00

Structure (SMILES): CC[C@H](CO)Nc1nc(NCc2ccccc2)c2ncn(C(C)C)c2n1 [Roscovitine]
- Combination Index @ Fa = 0.5 [1]: 1.10

Structure (SMILES): CN[C@H]1CN(c2ccc3c(=O)c(C(=O)O)cn(-c4nccs4)c3n2)C[C@@H]1OC [SNS-595, (+)-1,4-dihydro-7-[(3S,4S)-3-methoxy-4-(methylamino)-1-pyrrolidinyl]-4-oxo-1-(2-thiazoyl)-1,8-naphthyridine-3-carboxylic acid]
- difference in potency, cellular EC50 versus biochemical inhibition of topoisomerase II [2]: at least a ten-fold difference in increased potency
- IC50 [3]: ~5 µM
- difference in activity between 2-deoxyglucose treated cells and untreated cells [4]: essentially no difference in activity
- IC50 lower in the presence of wortmannin than in its absence [5]: 3-6 fold
- sensitization to SNS-595 [6]: ~10 fold
- solubility [7]: increased solubility
- activation of DNA-PK mediated repair and apoptotic cellular machinery [8]: activates, in a dose dependent manner
- levels of DNA-PK pathway members in tumors upon treatment [9]: activated in tumors
- relation of dose to AUC∞ ([10]; dose escalation by sequential cohort): linear with AUC∞
- C0 ([10]; 3 mg/m2, plasma, dose 3 mg/m^2): 153 ng/mL
- C0 ([10]; 6 mg/m2, plasma, dose 6 mg/m^2): 377 ng/mL
- C0 ([10]; 12 mg/m2, plasma, dose 12 mg/m^2): 2890 ng/mL
- C0 ([10]; 24 mg/m2, plasma, dose 24 mg/m^2): 2920 ng/mL
- C0 ([10]; 48 mg/m2, plasma, dose 48 mg/m^2): 1980 ng/mL
- C0 ([10]; 60 mg/m2, plasma, dose 60 mg/m^2): 4800 ng/mL
- AUCINF_obs ([10]; plasma, dose 3 mg/m^2): 1139.55 ng·h/mL
- Cl_obs ([10]; plasma, dose 3 mg/m^2): 1.14 mL/min/kg
- Cmax ([10]; plasma, dose 3 mg/m^2): 138.80 ng/mL
- HL ([10]; plasma, dose 3 mg/m^2): 16.27 h
- MRTINF_obs ([10]; plasma, dose 3 mg/m^2): 21.95 h
- Vss_obs ([10]; plasma, dose 3 mg/m^2): 1.44 L/kg
- Vz_obs ([10]; plasma, dose 3 mg/m^2): 1.55 L/kg
- Cl_obs ([10]; plasma, dose 6 mg/m^2): 0.71 mL/min/kg
- Cmax ([10]; plasma, dose 6 mg/m^2): 347.00 ng/mL
- HL ([10]; plasma, dose 6 mg/m^2): 20.69 h
- Vss_obs ([10]; plasma, dose 6 mg/m^2): 1.24 L/kg
- Vz_obs ([10]; plasma, dose 6 mg/m^2): 1.28 L/kg
- AUCINF_obs ([10]; plasma, dose 12 mg/m^2): 6329.15 ng·h/mL
- Cl_obs ([10]; plasma, dose 12 mg/m^2): 0.76 mL/min/kg
- Cmax ([10]; plasma, dose 12 mg/m^2): 2246.67 ng/mL
- HL ([10]; plasma, dose 12 mg/m^2): 17.81 h
- Vss_obs ([10]; plasma, dose 12 mg/m^2): 1.07 L/kg
- Vz_obs ([10]; plasma, dose 12 mg/m^2): 1.17 L/kg
- AUCINF_obs ([10]; plasma, dose 24 mg/m^2): 12655.32 ng·h/mL
- AUClast ([10]; plasma, dose 24 mg/m^2): 11133.03 ng·h/mL
- Cl_obs ([10]; plasma, dose 24 mg/m^2): 0.83 mL/min/kg
- Cmax ([10]; plasma, dose 24 mg/m^2): 2703.33 ng/mL
- HL ([10]; plasma, dose 24 mg/m^2): 16.14 h
- Vss_obs ([10]; plasma, dose 24 mg/m^2): 1.06 L/kg
- Vz_obs ([10]; plasma, dose 24 mg/m^2): 1.15 L/kg
- AUCINF_obs ([10]; plasma, dose 48 mg/m^2): 27347.38 ng·h/mL
- Cl_obs ([10]; plasma, dose 48 mg/m^2): 0.99 mL/min/kg
- Cmax ([10]; plasma, dose 48 mg/m^2): 2868.00 ng/mL
- HL ([10]; plasma, dose 48 mg/m^2): 21.32 h
- Vss_obs ([10]; plasma, dose 48 mg/m^2): 1.48 L/kg
- Vz_obs ([10]; plasma, dose 48 mg/m^2): 1.57 L/kg
- Cl_obs ([10]; plasma, dose 60 mg/m^2): 0.83 mL/min/kg
- Cmax ([10]; plasma, dose 60 mg/m^2): 4537.50 ng/mL
- HL ([10]; plasma, dose 60 mg/m^2): 17.63 h
- Vss_obs ([10]; plasma, dose 60 mg/m^2): 1.08 L/kg
- Vz_obs ([10]; plasma, dose 60 mg/m^2): 1.20 L/kg
- difference in EC50 values, caffeine-treated (G2 arrest abrogated) versus untreated cells [11]: essentially no difference in EC50 values
- sensitivity of resistant HCT-116 variant relative to HCT-116 cells [12]: approximately ten fold less sensitive
- lethality to non-proliferating cells [13]: non-lethal to non-proliferating cells

Structure (SMILES): COC[C@H]1OC(=O)c2coc3c2[C@@]1(C)C1=C(C3=O)[C@@H]2CCC(=O)[C@@]2(C)C[C@H]1OC(C)=O [Wortmannin]
- Combination Index @ Fa = 0.5 [1]: 0.42
